Assay results taken from patent publication US8343549B2, “Therapeutic uses of Dunaliella powder” (Nikken Sohonsha Corporation, priority 2003, dated 2013).

What was measured:
patients = patients treated with gemfibrozil; cited from earlier work
male LDL R-\-mice = assay: Western diet-induced diabetes in LDL R-/- mice; assay type: in vivo; conditions: LDL R-/- mice on Western diet, 4 weeks treatment
Description: To test the effect of Dunaliella on Diabetes, male LDL R-\-mice (n=30) were fed a Western diet (42% calories from fat) in order to induce Diabetes. After 4 weeks of Western diet feeding, the mice were divided into 6 groups (n=5 in each group) and were fed Western diet fortified by rosiglitazone (0.02% of the diet, weight/weight), crude Dunaliella powder (8% of the diet, weight/weight) or 9-cis retinoic acid (24 nmol/mouse×day). The treatments lasted 4 weeks.
The 8% Dunaliella powder provided ˜1.5 nmol 9-cis retinoic acid/mouse×day. This calculated amount is based on conversion of β-carotene to vitamin A (27 molecules provide 1 molecule of vitamin A and on the ratio of retinoic acid to vitamin A which is about 1 molecule of retinoic acid to 300 molecules of retinol, retinal and retinoic acid).
The following groups were included:
1. Control, Western diet alone. (Control)
2. 9-cis retinoic acid (RA)
4. Dunaliella powder 8% (Dun)

Row | SMILES | reduction of the rate of coronary events (patients) | plasma glucose levels (male LDL R-\-mice) | plasma insulin levels (male LDL R-\-mice)
1 | Cc1ccc(C)c(OCCCC(C)(C)C(=O)O)c1 [gemfibrozil] | 22% | – | –
2 | CC1=C(/C=C/C(C)=C\C=C\C(C)=C\C(=O)O)C(C)(C)CCC1 [9-cis retinoic acid] | – | did not affect | did not affect
